Reference: ChEMBL document CHEMBL1134185, “Synthesis and anticonvulsant activity of novel and potent 1-aryl-7,8-methylenedioxy-1,2,3,5-tetrahydro-4H-2,3-benzodiazepin-4-ones” (2001)

Experiments:
[1] = organism: Mus musculus; assay: Dose required to produce locomotor deficit assessed by rotarod test in DBA/2 mice.; assay type: functional
[2] = organism: Mus musculus; assay: Ratio of TD50 to ED50, expressed as protective index; assay type: functional
[3] = Anticonvulsant activity against audiogenic Clonic seizures in DBA/2 mice, administered ip 30 minutes before auditory stimulation.; assay type: functional; details: Mus musculus
[4] = Anticonvulsant activity against audiogenic tonic seizures in DBA/2 mice, administered ip 30 minutes before auditory stimulation; assay type: functional; details: Mus musculus
[5] = system: Mus musculus; assay: Effective dose required for anticonvulsant activity against Clonic phase of seizure in DBA/2 mice 90 minutes after ip administration of the compound; assay type: functional; details: 1.5 h
[6] = system: Mus musculus; assay: Effective dose required for anticonvulsant activity against Clonic phase of seizure in DBA/2 mice 45 minutes after ip administration of the compound; assay type: functional; details: 0.75 h
[7] = system: Mus musculus; assay: Effective dose required for anticonvulsant activity against AMPA-induced Tonic seizure in DBA/2 mice 45 minutes after ip administration of the compound; details: 0.75 h
[8] = system: Mus musculus; assay: Effective dose required for anticonvulsant activity against KA-induced seizure was evaluated in Swiss mice on sc administration at CD97 (32 mg/kg) 15 minutes after ip injection of compound.; assay type: functional; details: 0.25 h
[9] = system: Mus musculus; assay: Effective dose required for anticonvulsant activity against Clonic phase of seizure in DBA/2 mice 120 minutes after ip administration of the compound; assay type: functional; details: 2 h
[10] = system: Mus musculus; assay: Effective dose required for anticonvulsant activity against Clonic phase of seizure in DBA/2 mice 15 minutes after ip administration of the compound; assay type: functional; details: 0.25 h
[11] = system: Mus musculus; assay: Effective dose required for anticonvulsant activity by ip administration against tonic phase of audiogenic seizures in DBA/2 mice after pretreatment with aniracetam+ 2,3-benzodiazepine (p<0.01); assay type: functional
[12] = system: Mus musculus; assay: Effective dose required for anticonvulsant activity by ip administration against clonic phase of audiogenic seizures in DBA/2 mice after pretreatment with aniracetam+ 2,3-benzodiazepine (p<0.01); assay type: functional
[13] = system: Mus musculus; assay: Effective dose required for anticonvulsant activity against Clonic phase of seizure in DBA/2 mice 30 minutes after ip administration of the compound; assay type: functional; details: 0.5 h
[14] = system: Mus musculus; assay: Effective dose required for anticonvulsant activity against Clonic phase of seizure in DBA/2 mice 60 minutes after ip administration of the compound; assay type: functional; details: 1 h
[15] = system: Mus musculus; assay: Effective dose required for anticonvulsant activity against MES-induced Tonic seizure in Swiss mice 45 minutes after ip administration of the compound; assay type: functional; details: 0.75 h
[16] = system: Mus musculus; assay: Effective dose required for anticonvulsant activity against AMPA-induced clonic seizure in Swiss mice 45 minutes after ip administration of the compound; assay type: functional; details: 0.75 h
[17] = system: Mus musculus; assay: Effective dose required for anticonvulsant activity against PTZ-induced Clonic seizure in Swiss mice 45 minutes after ip administration of the compound; details: 0.75 h
[18] = organism: Mus musculus; assay: Percent reduction of KA-evoked current with the patch clamp technique in cerebellar granule neurons grown in primary culture at a dose level of 100 uM was evaluated; assay type: functional
[19] = system: Mus musculus; assay: Effective dose required for anticonvulsant activity against AMPA-induced tonic seizure in Swiss mice 45 minutes after ip administration of the compound; assay type: functional; details: 0.75 h

SMILES	TD50 [1] [µM/kg]	Ratio [2]	ED50 [3] [µmol/kg]	ED50 [4] [µmol/kg]	other results
CCCC(=O)NN1N=C(c2ccc(N)cc2)c2cc3c(cc2CC1=O)OCO3	398	3.4	69.4	5.09	
CCCCC(=O)NN1N=C(c2ccc(N)cc2)c2cc3c(cc2CC1=O)OCO3	673	4.7	22.4	14.2	
Nc1ccc(C2NNC(=O)Cc3cc4c(cc32)OCO4)cc1 (centres undefined)		3.6	11.4	6.47	ED50 [5]: 37.1 µmol/kg; ED50 [6]: 18.7 µmol/kg; ED50 [7]: 17.5 µmol/kg; ED50 [8]: 15.9 µmol/kg; ED50 [9]: 39.5 µmol/kg; ED50 [10]: > 50 µmol/kg; ED50 [11]: 33.1 µmol/kg; ED50 [12]: 52.3 µmol/kg; ED50 [13]: 11.4 µmol/kg; ED50 [14]: 23.4 µmol/kg; ED50 [15]: 35.7 µmol/kg; ED50 [16]: 24.6 µmol/kg; ED50 [17]: 59.7 µmol/kg; Reduction [18]: 38%
CCC(=O)NN1NC(c2ccc(N)cc2)c2cc3c(cc2CC1=O)OCO3 (centres undefined)	86.1	3.5	24.6	18.1	
CC(=O)NN1N=C(c2ccc(N)cc2)c2cc3c(cc2CC1=O)OCO3		4.5	15.4	10.9	ED50 [1]: 99.1 µmol/kg
Nc1ccc(C2=NNC(=O)Cc3cc4c(cc32)OCO4)cc1					ED50 [19]: 27 µmol/kg; ED50 [16]: 37.6 µmol/kg
O=C1Cc2cc3c(cc2C(c2ccccc2)=NN1)OCO3		3.7			
CC(=O)NN1NC(c2ccc(N)cc2)c2cc3c(cc2CC1=O)OCO3 (centres undefined)	182	2.6	69.4	49.2	
CCC(=O)NN1N=C(c2ccc(N)cc2)c2cc3c(cc2CC1=O)OCO3	41.2	3.6	11.4	6.47	
CCCC(=O)NN1NC(c2ccc(N)cc2)c2cc3c(cc2CC1=O)OCO3 (centres undefined)	108	2.8	38.7	32.6	
CC1=NN=C(c2ccc(N)cc2)c2cc3c(cc2C1)OCO3 [GYKI-52466]		2.1			
